Data from ChEMBL document CHEMBL2311459, “Naphthyridinone (NTD) integrase inhibitors: N1 protio and methyl combination substituent effects with C3 amide groups” (Bioorg Med Chem Lett, 2013).

Tested on: Human immunodeficiency virus
Assay: Antiviral activity against HIV
Assay type: functional, organism-based
Conditions: Human immunodeficiency virus 1

Compound | IC50 [nM]
Cn1c(=O)c(C(=O)NCCCN2CCCC2=O)c(O)c2ncc(Cc3ccc(F)cc3)cc21 | 2
Cn1c(=O)c(C(=O)NCCCO)c(O)c2ncc(Cc3ccc(F)cc3)cc21 | 1
C[C@@H](CO)NC(=O)c1c(O)c2ncc(Cc3ccc(F)cc3)cc2[nH]c1=O | 6
CC(C)OCCCNC(=O)c1c(O)c2ncc(Cc3ccc(F)cc3)cc2[nH]c1=O | 8
O=C(NC1CCS(=O)(=O)CC1)c1c(O)c2ncc(Cc3ccc(F)cc3)cc2[nH]c1=O | 48
CCNC(=O)c1c(O)c2ncc(Cc3ccc(F)cc3)cc2n(C)c1=O | 2
C[C@@H](O)CNC(=O)c1c(O)c2ncc(Cc3ccc(F)cc3)cc2[nH]c1=O | 7
Cn1c(=O)c(C(=O)NCCN2CCOCC2)c(O)c2ncc(Cc3ccc(F)cc3)cc21 | 4
C[C@H](O)CNC(=O)c1c(O)c2ncc(Cc3ccc(F)cc3)cc2[nH]c1=O | 7
Cn1c(=O)c(C(=O)NCCCN2CCCC2)c(O)c2ncc(Cc3ccc(F)cc3)cc21 | 9
C[C@@H](CO)NC(=O)c1c(O)c2ncc(Cc3ccc(F)cc3)cc2n(C)c1=O | 1
O=C(NCCCO)c1c(O)c2ncc(Cc3ccc(F)cc3)cc2[nH]c1=O | 4
CNC(=O)c1c(O)c2ncc(Cc3ccc(F)cc3)cc2[nH]c1=O | 3
O=C(NCCN1CCOCC1)c1c(O)c2ncc(Cc3ccc(F)cc3)cc2[nH]c1=O | 6
O=C(NCCCN1CCCC1)c1c(O)c2ncc(Cc3ccc(F)cc3)cc2[nH]c1=O | 39
C[C@H](CO)NC(=O)c1c(O)c2ncc(Cc3ccc(F)cc3)cc2n(C)c1=O | 2
O=C(NCCCN1CCCC1=O)c1c(O)c2ncc(Cc3ccc(F)cc3)cc2[nH]c1=O | 5
CCOCCNC(=O)c1c(O)c2ncc(Cc3ccc(F)cc3)cc2[nH]c1=O | 4
CC(C)(CO)NC(=O)c1c(O)c2ncc(Cc3ccc(F)cc3)cc2[nH]c1=O | 2

Tested on: not listed separately
Assay: AUC in CD rat at 5 mg/kg, po
Assay type: ADME, organism-based
Set-up: dose 5 mg/kg, route oral
Conditions: plasma

Compound | AUC [ng·h/mL]
COCCNC(=O)c1c(O)c2ncc(Cc3ccc(F)cc3)cc2n(C)c1=O | 1850
C[C@@H](CO)NC(=O)c1c(O)c2ncc(Cc3ccc(F)cc3)cc2n(C)c1=O | 22600

Tested on: not listed separately
Assay: Half life in CD rat at 1 mg/kg, iv and 5 mg/kg, po
Assay type: ADME, organism-based
Conditions: in vivo

Compound | half-life [h]
COCCNC(=O)c1c(O)c2ncc(Cc3ccc(F)cc3)cc2n(C)c1=O | 4

Tested on: Human immunodeficiency virus
Assay: Antiviral activity against HIV infected in human MT4 cells
Assay type: functional, organism-based
Conditions: Human immunodeficiency virus 1, MT4

Compound | IC50 [nM]
Cn1c(=O)c(C(=O)NCCN2CCOCC2)c(O)c2ncc(Cc3ccc(F)cc3)cc21 | 64
O=C(NCCN1CCOCC1)c1c(O)c2ncc(Cc3ccc(F)cc3)cc2[nH]c1=O | 32
C[C@H](CO)NC(=O)c1c(O)c2ncc(Cc3ccc(F)cc3)cc2n(C)c1=O | 4

Tested on: not listed separately
Assay: Ratio of plasma concentration in CD rat at 1 mg/kg, iv and 5 mg/kg, po after 24 hrs to IC50 for HIV in presence of 40 mg/mL of purified human serum albumin
Assay type: ADME, organism-based
Conditions: in vivo

Compound | Ratio
COCCNC(=O)c1c(O)c2ncc(Cc3ccc(F)cc3)cc2n(C)c1=O | 0.1
C[C@@H](CO)NC(=O)c1c(O)c2ncc(Cc3ccc(F)cc3)cc2n(C)c1=O | 2.7

Tested on: not listed separately
Assay: Therapeutic index, ratio of cytotoxicity against human MT4 cells to antiviral activity against HIV
Assay type: cell-based
Conditions: read-out: TI

Compound | selectivity ratio
Cn1c(=O)c(C(=O)NCCN2CCOCC2)c(O)c2ncc(Cc3ccc(F)cc3)cc21 | 165
O=C(NCCN1CCOCC1)c1c(O)c2ncc(Cc3ccc(F)cc3)cc2[nH]c1=O | > 250
C[C@H](CO)NC(=O)c1c(O)c2ncc(Cc3ccc(F)cc3)cc2n(C)c1=O | > 12500

Target: Human immunodeficiency virus type 1 integrase (Human immunodeficiency virus 1, UniProt Q7ZJM1)
Assay: Inhibition of HIV1 integrase strand transfer activity
Conditions: not given

Human immunodeficiency virus type 1 integrase, sequence (Q7ZJM1 whole entry): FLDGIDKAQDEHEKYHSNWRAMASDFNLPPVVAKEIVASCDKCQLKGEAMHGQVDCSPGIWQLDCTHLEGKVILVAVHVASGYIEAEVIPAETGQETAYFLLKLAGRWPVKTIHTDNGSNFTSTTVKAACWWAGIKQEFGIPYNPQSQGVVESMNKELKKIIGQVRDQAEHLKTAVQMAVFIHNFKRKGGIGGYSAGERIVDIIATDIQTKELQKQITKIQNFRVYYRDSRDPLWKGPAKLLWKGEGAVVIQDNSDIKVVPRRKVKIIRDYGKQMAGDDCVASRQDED

Compound | IC50 [nM]
COCCNC(=O)c1c(O)c2ncc(Cc3ccc(F)cc3)cc2n(C)c1=O | 4
Cn1c(=O)c(C(=O)NCCCN2CCCC2=O)c(O)c2ncc(Cc3ccc(F)cc3)cc21 | 16
Cn1c(=O)c(C(=O)NCCCO)c(O)c2ncc(Cc3ccc(F)cc3)cc21 | 5
C[C@@H](CO)NC(=O)c1c(O)c2ncc(Cc3ccc(F)cc3)cc2[nH]c1=O | 4
CC(C)OCCCNC(=O)c1c(O)c2ncc(Cc3ccc(F)cc3)cc2[nH]c1=O | 9
O=C(NC1CCS(=O)(=O)CC1)c1c(O)c2ncc(Cc3ccc(F)cc3)cc2[nH]c1=O | 9
CCNC(=O)c1c(O)c2ncc(Cc3ccc(F)cc3)cc2n(C)c1=O | 4
C[C@@H](O)CNC(=O)c1c(O)c2ncc(Cc3ccc(F)cc3)cc2[nH]c1=O | 6
Cn1c(=O)c(C(=O)NCCN2CCOCC2)c(O)c2ncc(Cc3ccc(F)cc3)cc21 | 13
C[C@H](O)CNC(=O)c1c(O)c2ncc(Cc3ccc(F)cc3)cc2[nH]c1=O | 3
Cn1c(=O)c(C(=O)NCCCN2CCCC2)c(O)c2ncc(Cc3ccc(F)cc3)cc21 | 6
C[C@@H](CO)NC(=O)c1c(O)c2ncc(Cc3ccc(F)cc3)cc2n(C)c1=O | 4
O=C(NCCCO)c1c(O)c2ncc(Cc3ccc(F)cc3)cc2[nH]c1=O | 11
CNC(=O)c1c(O)c2ncc(Cc3ccc(F)cc3)cc2[nH]c1=O | 6
O=C(NCCN1CCOCC1)c1c(O)c2ncc(Cc3ccc(F)cc3)cc2[nH]c1=O | 7
NC(=O)c1c(O)c2ncc(Cc3ccc(F)cc3)cc2[nH]c1=O | 45
O=C(NCCCN1CCCC1)c1c(O)c2ncc(Cc3ccc(F)cc3)cc2[nH]c1=O | 23
C[C@H](CO)NC(=O)c1c(O)c2ncc(Cc3ccc(F)cc3)cc2n(C)c1=O | 8
O=C(NCCCN1CCCC1=O)c1c(O)c2ncc(Cc3ccc(F)cc3)cc2[nH]c1=O | 4
CCOCCNC(=O)c1c(O)c2ncc(Cc3ccc(F)cc3)cc2[nH]c1=O | 9
CC(C)(CO)NC(=O)c1c(O)c2ncc(Cc3ccc(F)cc3)cc2[nH]c1=O | 3

Tested on: not listed separately
Assay: AUC in dog at 5 mg/kg, po
Assay type: ADME, organism-based, Canis lupus familiaris
Set-up: dose 5 mg/kg, route oral
Conditions: plasma

Compound | AUC [ng·h/mL]
COCCNC(=O)c1c(O)c2ncc(Cc3ccc(F)cc3)cc2n(C)c1=O | 1240
C[C@@H](CO)NC(=O)c1c(O)c2ncc(Cc3ccc(F)cc3)cc2n(C)c1=O | 1120

Tested on: Human immunodeficiency virus
Assay: Antiviral activity against HIV in presence of 40 mg/mL of purified human serum albumin
Assay type: functional, organism-based
Conditions: Human immunodeficiency virus 1

Compound | IC50 [nM]
COCCNC(=O)c1c(O)c2ncc(Cc3ccc(F)cc3)cc2n(C)c1=O | 48
Cn1c(=O)c(C(=O)NCCCN2CCCC2=O)c(O)c2ncc(Cc3ccc(F)cc3)cc21 | 15
Cn1c(=O)c(C(=O)NCCCO)c(O)c2ncc(Cc3ccc(F)cc3)cc21 | 40
C[C@@H](CO)NC(=O)c1c(O)c2ncc(Cc3ccc(F)cc3)cc2[nH]c1=O | 19
CC(C)OCCCNC(=O)c1c(O)c2ncc(Cc3ccc(F)cc3)cc2[nH]c1=O | 190
O=C(NC1CCS(=O)(=O)CC1)c1c(O)c2ncc(Cc3ccc(F)cc3)cc2[nH]c1=O | 170
CCNC(=O)c1c(O)c2ncc(Cc3ccc(F)cc3)cc2n(C)c1=O | 650
C[C@@H](O)CNC(=O)c1c(O)c2ncc(Cc3ccc(F)cc3)cc2[nH]c1=O | 282
Cn1c(=O)c(C(=O)NCCN2CCOCC2)c(O)c2ncc(Cc3ccc(F)cc3)cc21 | 23
C[C@H](O)CNC(=O)c1c(O)c2ncc(Cc3ccc(F)cc3)cc2[nH]c1=O | 78
Cn1c(=O)c(C(=O)NCCCN2CCCC2)c(O)c2ncc(Cc3ccc(F)cc3)cc21 | 34
C[C@@H](CO)NC(=O)c1c(O)c2ncc(Cc3ccc(F)cc3)cc2n(C)c1=O | 15
O=C(NCCCO)c1c(O)c2ncc(Cc3ccc(F)cc3)cc2[nH]c1=O | 41
O=C(NCCN1CCOCC1)c1c(O)c2ncc(Cc3ccc(F)cc3)cc2[nH]c1=O | 42
O=C(NCCCN1CCCC1)c1c(O)c2ncc(Cc3ccc(F)cc3)cc2[nH]c1=O | 109
C[C@H](CO)NC(=O)c1c(O)c2ncc(Cc3ccc(F)cc3)cc2n(C)c1=O | 11
O=C(NCCCN1CCCC1=O)c1c(O)c2ncc(Cc3ccc(F)cc3)cc2[nH]c1=O | 31
CCOCCNC(=O)c1c(O)c2ncc(Cc3ccc(F)cc3)cc2[nH]c1=O | 65
CC(C)(CO)NC(=O)c1c(O)c2ncc(Cc3ccc(F)cc3)cc2[nH]c1=O | 19

Tested on: not listed separately
Assay: Ratio of plasma concentration in dog at 1 mg/kg, iv and 5 mg/kg, po after 24 hrs to IC50 for HIV in presence of 40 mg/mL of purified human serum albumin
Assay type: ADME, organism-based
Conditions: in vivo

Compound | Ratio
COCCNC(=O)c1c(O)c2ncc(Cc3ccc(F)cc3)cc2n(C)c1=O | 0
C[C@@H](CO)NC(=O)c1c(O)c2ncc(Cc3ccc(F)cc3)cc2n(C)c1=O | 0
